{
  "source": "patent US6537996B2",
  "about": "“Modulators of p38 MAP kinase” (Iconix Pharmaceuticals, Inc., priority 2000, dated 2003)",
  "key": {"yeast": {"tested_on": "yeast", "assay": "growth rescue ARC experiments performed in yeast", "assay_type": "cell-based", "settings": "Saccharomyces cerevisiae, read-out: in vivo IC50"}, "Recombinant p38": {"biological_target": "T1, Recombinant p38 (Homo sapiens, UniProt Q16539)", "T1 construct": "purchased Biomol SE-150", "T1 sequence (Q16539 whole entry)": "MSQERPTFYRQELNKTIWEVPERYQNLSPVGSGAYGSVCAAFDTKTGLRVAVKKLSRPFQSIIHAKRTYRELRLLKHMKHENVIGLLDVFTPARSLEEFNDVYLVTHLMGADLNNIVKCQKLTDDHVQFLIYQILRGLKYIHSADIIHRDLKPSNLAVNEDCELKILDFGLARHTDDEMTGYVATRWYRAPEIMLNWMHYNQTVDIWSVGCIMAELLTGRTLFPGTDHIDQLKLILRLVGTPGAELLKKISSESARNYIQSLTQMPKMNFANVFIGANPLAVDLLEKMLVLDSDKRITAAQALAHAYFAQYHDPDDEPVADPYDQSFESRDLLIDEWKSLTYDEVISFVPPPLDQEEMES", "assay": "p38 assay (32P incorporation into GST-ATF-2)", "assay_type": "biochemical", "settings": "recombinant p38, GST-ATF-2 substrate, 30 μM ATP; IC50 estimated from graph", "experimental": "(A) Protocol: Recombinant p38 was pre-incubated for 30 minutes at room temperature in ADB (Assay Dilution Buffer: 20 mM MOPS, pH 7.2, 20 mM MgCl2, 5 mM EGTA, 1 mM DTT, 25 mM β-glycerolphosphate, 2 mM pNPP, 0.1 mM sodium orthovanadate) with recombinant GST-ATF-2 and compounds at various concentrations. The DMSO concentration was held constant at 0.1% (v/v) independent of the compound concentration. Kinase reactions were started with a mixture of ^32P-γ-ATP and ATP in ADB and were incubated for 30 minutes at 37° C. Final concentrations in kinase reactions was 0.625 ng/μl recombinant p38 (Biomol, catalog number SE-150), 62.5 ng/μl recombinant GST-ATF-2 (Upstate Biotechnology, catalog #12-367) and 30 μM ATP (Amersham, catalog #AA0068, used within two weeks of the reference date). Reactions were terminated by the addition of stopmix (final concentrations: 62.5 mM Tris pH 6.8, 10% (v/v) glycerol, 5% (v/v) B-mercaptoethanol, 20 mg/ml SDS, 1 mg/ml bromophenol blue). At this point samples were either processed directly or stored at 4° C. For analysis, samples were heated to 95° C. for 5 min and proteins were separated by SDS-PAGE using 8-16% precast gels (Novex). […] Screens were scanned using a PhosphoImager SI (Molecular Dynamics) and the amount of radioactive ^32P incorporated into GST-ATF-2 was quantified using ImageQuant (Molecular Dynamics) software. […]"}},
  "data": [
    {"smiles": "CC(C)/N=C(/Nc1cccc(C(F)(F)F)c1)c1ccncc1", "note": "[X, N-(3-trifluoromethylphenyl)-N′-isopropyl-4-amidinopyridine]", "values": [
      {"measurement": "IC50", "setting": "yeast", "value": 13.2, "unit": "µM"},
      {"measurement": "IC50", "setting": "Recombinant p38", "value": 0.75, "unit": "µM"}
    ]}
  ]
}
